The values that follow come from ChEMBL document CHEMBL4610129, “Discovery of Novel Selective and Orally Bioavailable Phosphodiesterase-1 Inhibitors for the Efficient Treatment of Idiopathic Pulmonary Fibrosis” (J Med Chem, 2020).

Data set [1] addresses T1, Dual specificity calcium/calmodulin-dependent 3',5'-cyclic nucleotide phosphodiesterase 1C (Homo sapiens, UniProt Q14123). As to the kind of experiment: Inhibition of PDE1C2 (147 to 531 residues) (unknown origin) at 100 nM using [3H]-cGMP substrate incubated for 15 mins by liquid scintillation counting method relative to control.
Data set [2] deals with T1, Dual specificity calcium/calmodulin-dependent 3',5'-cyclic nucleotide phosphodiesterase 1C. As to the kind of experiment: Inhibition of PDE1C2 (147 to 531 residues) (unknown origin) using [3H]-cGMP substrate incubated for 15 mins by liquid scintillation counting method.
In data set [3] the target is Dual specificity calcium/calmodulin-dependent 3',5'-cyclic nucleotide phosphodiesterase 1B (Homo sapiens, UniProt Q01064). As to the kind of experiment: Inhibition of PDE1B (146 to 506 residues) (unknown origin) using [3H]-cGMP substrate incubated for 15 mins by liquid scintillation counting method.
Data set [4] can be described thus: Half life in rat liver microsomes. It counts as ADME, Microsome.
The target in data set [5] is High affinity cGMP-specific 3',5'-cyclic phosphodiesterase 9A (Homo sapiens, UniProt O76083). As to the kind of experiment: Inhibition of PDE9A (181 to 506 residues) (unknown origin) using [3H]-cGMP substrate incubated for 15 mins by liquid scintillation counting method.
For data set [6], the system named is Rattus norvegicus. As to the kind of experiment: Anti-pulmonary fibrosis activity in Sprague-Dawley rat model of BLM-induced idiopathic pulmonary fibrosis assessed as reduction in peak inspiratory flow at 150 mg/kg, po dosed daily for 28 days by mka noninvasive pulmonary monitoring system based method. It is filed as functional, organism-based.
Data set [7] deals with Rattus norvegicus. As to the kind of experiment: Anti-pulmonary fibrosis activity in Sprague-Dawley rat model of BLM-induced idiopathic pulmonary fibrosis assessed as reduction in peak expiratory flow at 150 mg/kg, po dosed daily for 28 days by mka noninvasive pulmonary monitoring system based method. It counts as functional, organism-based.
In data set [8] the test system is Rattus norvegicus. As to the kind of experiment: Anti-pulmonary fibrosis activity in Sprague-Dawley rat model of BLM-induced idiopathic pulmonary fibrosis assessed as inhibition of collagen deposition at 150 mg/kg, po dosed daily for 28 days by Masson staining based assay. It is filed as functional, organism-based.
Data set [9] has as its system Rattus norvegicus. As to the kind of experiment: Anti-pulmonary fibrosis activity in Sprague-Dawley rat model of BLM-induced idiopathic pulmonary fibrosis assessed as reduction in end-inspiratory pause at 150 mg/kg, po dosed daily for 28 days by mka noninvasive pulmonary monitoring system based method. It counts as functional, organism-based.
The subject of data set [10] is Rattus norvegicus. As to the kind of experiment: Anti-pulmonary fibrosis activity in Sprague-Dawley rat model of BLM-induced idiopathic pulmonary fibrosis assessed as reduction in enhanced pause at 150 mg/kg, po dosed daily for 28 days by mka noninvasive pulmonary monitoring system based method. It counts as functional, organism-based.
The test system of data set [11] is Rattus norvegicus. As to the kind of experiment: Anti-pulmonary fibrosis activity in Sprague-Dawley rat model of BLM-induced idiopathic pulmonary fibrosis assessed as reduction in lung structural damage at 150 mg/kg, po dosed daily for 28 days by H and E staining based assay. It counts as functional, organism-based.
The test system of data set [12] is Rattus norvegicus. As to the kind of experiment: Anti-pulmonary fibrosis activity in Sprague-Dawley rat model of BLM-induced idiopathic pulmonary fibrosis assessed as reduction in end-expiratory pause at 150 mg/kg, po dosed daily for 28 days by mka noninvasive pulmonary monitoring system based method. It counts as functional, organism-based.
For data set [13], the system named is Rattus norvegicus. As to the kind of experiment: Anti-pulmonary fibrosis activity in Sprague-Dawley rat model of BLM-induced idiopathic pulmonary fibrosis assessed as reduction in mid-expiratory flow at 150 mg/kg, po dosed daily for 28 days by mka noninvasive pulmonary monitoring system based method. It counts as functional, organism-based.

SMILES strings stand for the structures. Active and inactive are the calls of the source. The rule behind the calls is not given here.

T1 sequence (Q14123 whole entry, the tested form may be a part): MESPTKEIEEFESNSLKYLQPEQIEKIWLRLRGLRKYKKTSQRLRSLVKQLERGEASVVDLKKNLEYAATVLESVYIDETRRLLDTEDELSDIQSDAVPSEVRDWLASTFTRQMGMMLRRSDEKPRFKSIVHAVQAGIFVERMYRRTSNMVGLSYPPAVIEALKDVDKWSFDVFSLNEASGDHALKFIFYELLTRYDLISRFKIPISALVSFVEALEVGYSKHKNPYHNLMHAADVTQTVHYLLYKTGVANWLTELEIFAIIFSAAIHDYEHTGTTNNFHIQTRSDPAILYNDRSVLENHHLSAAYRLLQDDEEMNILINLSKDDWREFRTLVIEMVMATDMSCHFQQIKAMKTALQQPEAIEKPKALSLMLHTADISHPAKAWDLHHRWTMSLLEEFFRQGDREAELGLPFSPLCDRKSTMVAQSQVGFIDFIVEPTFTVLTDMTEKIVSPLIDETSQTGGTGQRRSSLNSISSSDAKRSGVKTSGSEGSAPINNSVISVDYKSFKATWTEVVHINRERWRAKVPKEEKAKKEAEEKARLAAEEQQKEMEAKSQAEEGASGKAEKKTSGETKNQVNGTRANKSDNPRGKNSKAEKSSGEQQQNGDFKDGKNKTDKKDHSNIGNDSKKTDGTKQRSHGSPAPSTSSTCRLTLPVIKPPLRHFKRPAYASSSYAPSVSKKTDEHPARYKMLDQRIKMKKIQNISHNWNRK
Dual specificity calcium/calmodulin-dependent 3',5'-cyclic nucleotide phosphodiesterase 1B, sequence (Q01064 whole entry, the tested form may be a part): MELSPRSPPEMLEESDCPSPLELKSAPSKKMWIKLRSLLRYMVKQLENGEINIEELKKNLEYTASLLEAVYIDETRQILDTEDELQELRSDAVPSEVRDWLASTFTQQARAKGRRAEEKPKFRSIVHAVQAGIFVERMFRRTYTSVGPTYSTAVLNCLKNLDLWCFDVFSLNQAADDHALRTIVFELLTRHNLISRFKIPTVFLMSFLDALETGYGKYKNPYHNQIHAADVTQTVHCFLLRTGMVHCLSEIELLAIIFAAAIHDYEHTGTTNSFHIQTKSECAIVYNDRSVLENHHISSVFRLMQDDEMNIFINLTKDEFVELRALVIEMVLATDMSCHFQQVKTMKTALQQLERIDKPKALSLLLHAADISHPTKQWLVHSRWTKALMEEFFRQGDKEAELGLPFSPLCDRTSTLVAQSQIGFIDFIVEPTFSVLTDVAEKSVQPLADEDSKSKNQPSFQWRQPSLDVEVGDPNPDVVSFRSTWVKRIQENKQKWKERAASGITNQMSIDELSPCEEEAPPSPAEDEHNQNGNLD
High affinity cGMP-specific 3',5'-cyclic phosphodiesterase 9A, sequence (O76083 whole entry, the tested form may be a part): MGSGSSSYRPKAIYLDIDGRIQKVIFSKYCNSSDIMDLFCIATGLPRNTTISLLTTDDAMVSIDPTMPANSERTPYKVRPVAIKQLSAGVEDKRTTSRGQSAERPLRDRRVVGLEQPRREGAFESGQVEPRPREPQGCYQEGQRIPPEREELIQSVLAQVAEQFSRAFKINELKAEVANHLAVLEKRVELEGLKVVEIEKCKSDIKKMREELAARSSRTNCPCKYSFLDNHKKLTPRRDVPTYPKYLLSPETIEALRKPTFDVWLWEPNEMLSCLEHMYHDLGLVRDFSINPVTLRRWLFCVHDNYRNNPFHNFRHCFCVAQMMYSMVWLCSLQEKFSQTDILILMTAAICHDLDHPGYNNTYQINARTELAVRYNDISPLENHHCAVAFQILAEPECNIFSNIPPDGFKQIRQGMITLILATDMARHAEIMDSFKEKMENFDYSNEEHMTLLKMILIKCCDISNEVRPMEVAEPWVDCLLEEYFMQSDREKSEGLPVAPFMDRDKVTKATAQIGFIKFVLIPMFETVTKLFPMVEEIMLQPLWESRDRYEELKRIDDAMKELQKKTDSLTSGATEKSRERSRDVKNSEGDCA

What is called inhibition is the change of the read-out against control, counted positive when it falls. Regarding `CC(C)(C)n1ncc2c(=O)n(Cc3ccc(F)cc3)c(N[C@@H]3CCc4ccccc43)nc21`, the inhibition in data set [1] was 54%.
Usually IC50 stands for the midpoint of a concentration-inhibition curve. In the case of `C[C@@H](Nc1nc2c(cnn2C(C)(C)C)c(=O)n1C)c1ccc(Cl)cc1`, the half-inhibitory concentration (IC50) in data set [2] amounted to 65 nM.
Turning to `C[C@@H](Nc1nc2c(cnn2C2CCCC2)c(=O)[nH]1)c1ccc(Cl)cc1`, the IC50 in [3] worked out at 80 nM.
By half-life is commonly meant how long it takes for the measured level to halve. Take `CC(C)n1ncc2c(=O)n(C)c(N[C@H](C)c3ccc(Cl)cc3)nc21`: the 50% inhibitory concentration (IC50) in [2] amounted to 57 nM. In addition, in [4], the half-life was determined as 2.2 min.
The matching figures for `CC(C)n1ncc2c(=O)n(Cc3ccccc3)c(N[C@H](C)c3ccc(Cl)cc3)nc21`: 0.9 nM and 2.4 min.
On to `CCn1c(N[C@H](C)c2ccc(Cl)cc2)nc2c(cnn2C2CCCC2)c1=O`, for which the inhibition in data set [1] was determined as 13%.
On the same count and under the same terms, for `CC(C)n1ncc2c(=O)n(Cc3ccsc3)c(N[C@H](C)c3ccc(Cl)cc3)nc21` the value was 47%; for `CC(C)n1ncc2c(=O)n(Cc3ccncc3)c(N[C@H](C)c3ccc(Cl)cc3)nc21`, 39%.
Turning to `C[C@@H](Nc1nc2c(cnn2C2CCCC2)c(=O)n1Cc1ccccc1)c1ccc(Cl)cc1`, the IC50 in data set [2] was 4.7 nM; in [3], 23 nM; in data set [5] it was more than 10000 nM. The compound also displayed a half-life in [4] of 0.5 min.
Take `Cc1ccc(=O)n(-c2ccccc2)c1`: the outcome with Rattus norvegicus [6], in the data set on Rattus norvegicus [7], in the data set on Rattus norvegicus [8], with Rattus norvegicus [9], with Rattus norvegicus [10] and in the data set on Rattus norvegicus [11] was Active. Further, the result with Rattus norvegicus [12] and with Rattus norvegicus [13] was Active.
Consider `CC(C)n1ncc2c(=O)n(Cc3ccc4c(c3)OCO4)c(N[C@H](C)c3ccc(Cl)cc3)nc21`, for which the half-maximal inhibitory concentration (IC50) in data set [2] worked out at 20 nM. In data set [4], the half-life worked out at 1.6 min.
For the compound `C[C@@H](Nc1nc2c(cnn2C2CCCC2)c(=O)n1C)c1ccc(Cl)cc1`, in data set [2], the IC50 was found to be 258 nM.
Regarding `C[C@@H](Nc1nc2c(cnn2C(C)(C)C)c(=O)n1Cc1ccc2c(c1)OCO2)c1ccc(Cl)cc1`, the 50% inhibitory concentration (IC50) in data set [2] was 27 nM. In addition, the half-life in data set [4] came out at 2.1 min.
The matching figures for `C[C@@H](Nc1nc2c(cnn2C(C)(C)C)c(=O)n1Cc1ccccc1)c1ccc(Cl)cc1`: 1.5 nM and 8.2 min.
Consider `CC1c2ccccc2CCN1c1nc2c(cnn2C(C)(C)C)c(=O)n1Cc1ccc(F)cc1` (stereo not given), for which the inhibition in data set [1] was found to be 16%.
As for `C[C@H](Nc1nc2c(cnn2C(C)(C)C)c(=O)n1Cc1ccccc1)c1ccc(F)cc1`, the half-maximal inhibitory concentration (IC50) in data set [2] was 245 nM.
For `CC(C)(C)n1ncc2c(=O)n(Cc3ccc(F)cc3)c(N[C@H]3CCc4ccccc43)nc21`, the inhibition in data set [1] is 37%.
For `C[C@@H](Nc1nc2c(cnn2C(C)(C)C)c(=O)n1Cc1ccccc1)c1ccc(F)cc1`, the IC50 in data set [2] stood at 2.6 nM.
Still for that read-out and setting: for `C[C@H](Nc1nc2c(cnn2C(C)(C)C)c(=O)n1Cc1ccccc1)c1ccc(Cl)cc1` the value was 157 nM.
With `CC(C)Cn1c(N[C@H](C)c2ccc(Cl)cc2)nc2c(cnn2C2CCCC2)c1=O`, the inhibition in data set [1] is 5%.
